Results on one compound are retold here after patent US10675294B2, “Pharmaceutical composition containing 8 OXO-deoxyguanosine or pharmaceutically acceptable salt thereof as active ingredient for treating corneal disease” (GACHON UNIVERSITY OF INDUSTRY-ACADEMIC COOPERATION …, priority 2016, dated 2020).

The test system of assay [1] is Rac protein. The settings on record: exogenous 8-oxo-dG; previous experiments with animal models; cited from earlier work.
Assay [2] relates to neutrophils, macrophages and T cells. The experiment in a line: Immunohistochemical staining of inflammatory cells in corneal tissue. The assay is classed as in vivo, mouse. The settings on record: 5 mg/ml or 10 mg/ml in the eye twice a day for a week, compared with control. As for the experimental part: (§1) Particularly, in order to construct a corneal injury mouse model using ethanol, a filter paper of 6 mm in diameter soaked in 100% ethanol was applied onto the cornea of the right eye of a female BALB/c mouse at 10 weeks of age for 30 seconds, followed by irrigation with PBS (phosphate-buffered saline) for 1 minute. In order to observe the defects of the corneal epithelium surface easily, the lysamine green reagent, which selectively stains the epithelium defect area, was treated on the surface of the damaged corneal epithelium and washed with physiological saline.
Particularly, the ethanol induced corneal injury mouse model constructed in Example 1 was administered with 8-oxo-dG in the eye at the concentration of 5 mg/ml or 10 mg/ml and the control PBS (phosphate-buffered saline), twice a day for a week. The corneal tissues were extracted and fixed in 10% paraformaldehyde, followed by washing with PBS. The tissues were treated with anti-neutrophil elastase, anti CD3 and anti F4/80 antibodies (Abcam, Cambridge, UK), the markers of neutrophils, T lymphocytes and macrophages. After washing with PBS, the secondary antibody (REAL™ EnVision™ detection system, Dako) was applied thereto. […] The immunostained cells in each section were counted by hand by two skilled examiners and the numbers were averaged.

In assay [3] the test system is ethanol induced corneal injury mouse model. Kind of assay: Histological observation (H&E) of corneal tissue. The settings on record: 5 mg/ml or 10 mg/ml in the eye twice a day for a week; n=2; FIGS. 5a, 5b. It counts as in vivo. As for the experimental part: as §1
The ethanol induced corneal injury mouse model constructed in Example 1 was administered with 8-oxo-dG in the eye at the concentration of 5 mg/ml or 10 mg/ml and the control PBS (phosphate-buffered saline), twice a day for a week. The corneal tissues were extracted and fixed in 10% paraformaldehyde, followed by washing with PBS. The tissues were embedded in paraffin and the paraffin block was stained with H&E (haematoxylin and eosin), followed by direct observation under the microscope. The stromal thickness was measured by using Image J software.

The subject of assay [4] is IL-6. Kind of assay: Inflammatory cytokine mRNA expression in corneal tissue by real time PCR. It counts as in vivo, mouse. The settings on record: 5 mg/ml or 10 mg/ml in the eye twice a day for a week; three groups incl. PBS; FIG. 7c. On the procedure: as §1
(§2) Particularly, the ethanol induced corneal injury mouse model constructed in Example 1 was administered with 8-oxo-dG in the eye at the concentration of 5 mg/ml or 10 mg/ml and the control PBS (phosphate-buffered saline), twice a day for a week. The corneal tissue was extracted and homogenized with a sonicator (Ultrasonic Processor, Cole Parmer Instruments, Vernon Hills, Ill., USA). Then, corneal RNA was extracted by using RNeasy Mini kit (Qiagen, Valencia, Calif., USA). CDNA was synthesized with the same amount of RNA of each corneal sample and real-time PCR (ABI 7500 Real Time PCR System, Applied Biosystems, Carlsbad, Calif., USA) was performed. Taqman Gene Expression Assays were used for real-time PCR. The detailed inflammatory cytokines were as follows. […]

For assay [5], the system named is IL-1β. The assay is described as above. The settings on record: 10 mg/ml in the eye twice a day for a week; compared with control; FIG. 7b. It counts as in vivo, mouse. As for the experimental part: as §1, §2
For assay [6], the system named is TNF-α. The assay is described as above. It counts as in vivo, mouse. The settings on record: 5 mg/ml or 10 mg/ml in the eye twice a day for a week; compared with control; FIG. 7a.
For assay [7], the system named is ethanol induced corneal injury mouse model. Kind of assay: Clinical index scoring of corneal epithelium damage recovery. It counts as in vivo. On the procedure:
as §1
8-oxo-dG was applied into the eye of the ethanol induced corneal injury mouse model for a week and then the recovery of the corneal epithelium damage was investigated. Particularly, the ethanol induced corneal injury mouse model examined in Experimental Example 1 was injected with Zoletil intramuscularly in order to anesthetize the mouse, followed by lysamine green staining on the cornea. Then, epithelial integrity and clarity of the corneal epithelium and corneal neovascularization were investigated and the results proceeded to clinical grading and scoring by items.
The corneal clarity was also evaluated and scored step by step. The indexes of the evaluation are as follows (Fantes et al, Arch Ophthalmol 1990).
In addition, in order to evaluate and score the degree of corneal neovascularization, the cornea was divided into quadrants as shown in FIG. 1. Based on the limbus between the cornea and the sclera, 0.5 points were assigned to each part of the newly formed vessels in the inside, followed by indexing and scoring (total 12 scores) (Li et al, Molecular Vision 2010).
During the application of 8-oxo-dG into the eye for a week, corneal staining was performed for a week to graphically identify the recovery of the corneal epithelial defects on daily basis.

Assay [8] has the same test system. Kind of assay: Visual and lysamine green staining observation of corneal epithelium surface. The settings on record: 5 mg/ml and 10 mg/ml in the eye twice a day for a week; compared with control (PBS); FIG. 3. The assay is classed as in vivo. On the procedure: as §1
The 8-oxo-2′-deoxyguanosine compound prepared at the concentrations of 5 mg/ml and 10 mg/ml and the control PBS (phosphate-buffered saline) were applied into the eye of the ethanol induced corneal injury mouse model constructed in Example 1, respectively twice a day for a week, followed by observation with the naked eye and photographs (n=15 in each group).

For `Nc1nc2c([nH]c(=O)n2[C@H]2CC(O)[C@@H](CO)O2)c(=O)[nH]1` (some centres unmarked) [8-oxo-dG, 8-oxo-2′-deoxyguanosine], in assay [1], the “effect on Rac protein (GTPase)” value is given as “inactivated Rac protein”. In assay [2] (FIG. 6a), the “number of cells stained with anti-neutrophil elastase (neutrophils)” value is “reduced significantly”. Also, in assay [2] (FIG. 6b), the “number of cells stained with anti F4/80 (macrophages)” value was “reduced significantly”. For the same compound, the “number of cells stained with anti CD3 (T cells)” value in assay [2] (FIG. 6c) was “not much different”. For the same compound, in assay [3], the “corneal epithelium tissue condition/thickness (H&E)” value is listed as “restored to the normal level”. Besides, the “expression of IL-6 mRNA” value in assay [4] was “not much different”. Besides, in assay [5], the “expression of IL-1β mRNA” value was “significantly reduced”. Also, the “expression of TNF-α mRNA” value in assay [6] was “not significantly but slightly reduced”. For the same compound, in assay [7] (5 mg/ml or 10 mg/ml in the eye twice a day for a week, FIG. 4c), the neovascularization scoring index result is recorded as “reduced in the group treated with 8-oxo-dG to some degree”. Further, the “epithelial integrity index score (defect of the corneal epithelium surface)” value in assay [7] (5 mg/ml or 10 mg/ml in the eye twice a day for a week, compared with PBS, FIG. 4a) was “reduced in the group treated with 8-oxo-dG dose-dependently”. Besides, in assay [7] (5 mg/ml or 10 mg/ml in the eye twice a day for a week, lower index = improved clarity, FIG. 4b), the “corneal clarity scoring index” value is “reduced in the group treated with 8-oxo-dG dose-dependently”. Further, the “daily recovery of corneal epithelial defects (corneal staining index score)” value in assay [7] (5 mg/ml or 10 mg/ml in the eye, daily corneal staining for a week, FIG. 4d) is given as “significantly reduced in the group treated with 8-oxo-dG dose-dependently”. Moreover, in assay [8], the “corneal epithelium surface damage, lysamine green staining (after staining)” value was “reduced significantly by the treatment of 8-oxo-dG dose-dependently” and the “corneal epithelium surface damage, naked eye (before staining)” value was “reduced by the treatment of 8-oxo-dG dose-dependently”.
